The conditions of data set [1]: cited from earlier work.
A short description of data set [2]: Pharmacokinetics (plasma and lung) after single oral dose in mice. To be noted: 60 mg/kg p.o. single dose. Type of data set: in vivo, Swiss Webster mice.
[3] abbreviates: Swiss Webster, mouse, po, plasma.

With `COC(=O)N[C@H](C(=O)N1CCC[C@H]1c1nc(-c2ccc(-c3ccc(-c4c[nH]c([C@@H]5CCCN5C(=O)[C@@H](NC(=O)OC)C(C)C)n4)cc3)cc2)c[nH]1)C(C)C` [daclatasvir], the “no-observable-effect level (NOEL)” value in data set [1] (nonhuman primates treated daily for 4–9 months) is 15 mg/kg. In data set [1] (nonhuman primates), the tolerated dose was 15 mg/kg. Also, the “AUC in plasma relative to lungs” value in data set [2] is listed as about 5.9 fold. In addition, in data set [2] (Swiss Webster, mouse, po, lung), the concentration peaked (Cmax) at 6190 ng/g, the Tmax (commonly the time from dosing to the highest level) came to 0.67 h and the half-life (commonly the time needed for the level to fall by half in the phase considered) is 14.7 h. Besides, in data set [2] (setting [3]), the AUC(0-inf) – broadly, the area under the concentration-time curve extrapolated to infinity – was determined as 103 µg·h/mL; the AUC(0-t) (in general, exposure summed from dosing to a finite time, without extrapolation to infinity) was found to be 101 µg·h/mL; the Cmax (in general, the highest concentration seen after dosing) worked out at 22200 ng/mL; the Tmax was found to be 1 h. For the same compound, the half-life in data set [2] (setting [3]) was 2.25 h. In addition, in data set [2] (lung), the AUClast was 16,932 h.ng/g, the “AUC∞” value is on record as 19,123 h.ng/g, the “Ct (last concentration observed above the limit of quantification)” value is reported as 103.46 ng/g and the Tlast is recorded as 16.00 h. In data set [2] (lung), the “λ (apparent elimination constant)” value is 0.0472 h*^−1. Also, in data set [2] (plasma), the “Ct (last concentration observed above the limit of quantification)” value turned out to be 353.84 ng/mL, the Tlast came to 16.00 h and the “λ (apparent elimination constant)” value was found to be 0.308 h*^−1.

(Values after publication PMC11680164 (Viruses, 2024).)
